# Tested on: 817829-284-R-J1-PDC complex spheroids, viability
# Assay: Anticancer human tumor 817829-284-R-J1-PDC patient-derived colon adenocarcinoma cell line growth inhibition [GQUAD]
# Conditions: second compound 1 µM; first compound 0.1 µM; stronger effect = lower value
# In short: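 Viability of tumor cells grown as complex spheroids with endothelial and stromal cells, exposed to drug combinations. Top concentration at or near clinical Cmax (else 10 microM), diluted in half-log increments.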
# 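Also: spheroids exposed to agents for 7 days before readout; percent viability relative to DMSO vehicle control taken as 100%.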
row,SMILES,"viability, T/C [%]"
1,Cc1cccc(N(C)C(=O)C2C(O)CCN2c2nc(C)cc(C(F)(F)F)c2C#N)c1 (configuration not stated) + Cc1[nH]c2ccc(F)cc2c1-c1nc2c3cccnc3c3ncccc3c2[nH]1,103
2,O=C(c1cc(Cc2n[nH]c(=O)c3ccccc23)ccc1F)N1CCN(C(=O)C2CC2)CC1 + Cc1[nH]c2ccc(F)cc2c1-c1nc2c3cccnc3c3ncccc3c2[nH]1,115

# Same assay, conditions: second compound 1 µM; first compound 0.316 µM; stronger effect = lower value
row,SMILES,"viability, T/C [%]"
1,C=CC(=O)N1CCN(c2nc(=O)n(-c3c(C)ccnc3C(C)C)c3nc(-c4c(O)cccc4F)c(F)cc23)C(C)C1 (configuration not stated) + Cc1[nH]c2ccc(F)cc2c1-c1nc2c3cccnc3c3ncccc3c2[nH]1,93.6
2,CC(C)n1c(=O)n(C)c2cnc3cc(F)c(-c4ccc(OCCCN5CCCCC5)nc4)cc3c21 + Cc1[nH]c2ccc(F)cc2c1-c1nc2c3cccnc3c3ncccc3c2[nH]1,120
3,CCc1c2c(nc3ccc(O)cc13)-c1cc3c(c(=O)n1C2)COC(=O)[C@]3(O)CC + Cc1[nH]c2ccc(F)cc2c1-c1nc2c3cccnc3c3ncccc3c2[nH]1,4.41
4,COc1cc(C2c3cc4c(cc3C(OC3OC5COC(C)OC5C(O)C3O)C3COC(=O)C23)OCO4)cc(OC)c1O (configuration not stated) + Cc1[nH]c2ccc(F)cc2c1-c1nc2c3cccnc3c3ncccc3c2[nH]1,30.7
5,COc1cccc2c1C(=O)c1c(O)c3c(c(O)c1C2=O)CC(O)(C(=O)CO)CC3OC1CC(N)C(O)C(C)O1 (configuration not stated) + Cc1[nH]c2ccc(F)cc2c1-c1nc2c3cccnc3c3ncccc3c2[nH]1,31.3
6,Cc1cccc(N(C)C(=O)C2C(O)CCN2c2nc(C)cc(C(F)(F)F)c2C#N)c1 (configuration not stated) + Cc1[nH]c2ccc(F)cc2c1-c1nc2c3cccnc3c3ncccc3c2[nH]1,106
7,O=C(c1cc(Cc2n[nH]c(=O)c3ccccc23)ccc1F)N1CCN(C(=O)C2CC2)CC1 + Cc1[nH]c2ccc(F)cc2c1-c1nc2c3cccnc3c3ncccc3c2[nH]1,97.8

# Same assay, conditions: second compound 1 µM; first compound 1 µM; stronger effect = lower value
row,SMILES,"viability, T/C [%]"
1,C=CC(=O)N1CCN(c2nc(=O)n(-c3c(C)ccnc3C(C)C)c3nc(-c4c(O)cccc4F)c(F)cc23)C(C)C1 (configuration not stated) + Cc1[nH]c2ccc(F)cc2c1-c1nc2c3cccnc3c3ncccc3c2[nH]1,97.6
2,CC(C)n1c(=O)n(C)c2cnc3cc(F)c(-c4ccc(OCCCN5CCCCC5)nc4)cc3c21 + Cc1[nH]c2ccc(F)cc2c1-c1nc2c3cccnc3c3ncccc3c2[nH]1,102
3,COc1cc(C2c3cc4c(cc3C(OC3OC5COC(C)OC5C(O)C3O)C3COC(=O)C23)OCO4)cc(OC)c1O (configuration not stated) + Cc1[nH]c2ccc(F)cc2c1-c1nc2c3cccnc3c3ncccc3c2[nH]1,30.4
4,COc1cccc2c1C(=O)c1c(O)c3c(c(O)c1C2=O)CC(O)(C(=O)CO)CC3OC1CC(N)C(O)C(C)O1 (configuration not stated) + Cc1[nH]c2ccc(F)cc2c1-c1nc2c3cccnc3c3ncccc3c2[nH]1,13.7
5,Cc1cccc(N(C)C(=O)C2C(O)CCN2c2nc(C)cc(C(F)(F)F)c2C#N)c1 (configuration not stated) + Cc1[nH]c2ccc(F)cc2c1-c1nc2c3cccnc3c3ncccc3c2[nH]1,98.7
6,O=C(c1cc(Cc2n[nH]c(=O)c3ccccc23)ccc1F)N1CCN(C(=O)C2CC2)CC1 + Cc1[nH]c2ccc(F)cc2c1-c1nc2c3cccnc3c3ncccc3c2[nH]1,97.4

# Same assay, conditions: second compound 1 µM; first compound 3.16 µM; stronger effect = lower value
row,SMILES,"viability, T/C [%]"
1,C=CC(=O)N1CCN(c2nc(=O)n(-c3c(C)ccnc3C(C)C)c3nc(-c4c(O)cccc4F)c(F)cc23)C(C)C1 (configuration not stated) + Cc1[nH]c2ccc(F)cc2c1-c1nc2c3cccnc3c3ncccc3c2[nH]1,98.2
2,CC(C)n1c(=O)n(C)c2cnc3cc(F)c(-c4ccc(OCCCN5CCCCC5)nc4)cc3c21 + Cc1[nH]c2ccc(F)cc2c1-c1nc2c3cccnc3c3ncccc3c2[nH]1,115
3,COc1cc(C2c3cc4c(cc3C(OC3OC5COC(C)OC5C(O)C3O)C3COC(=O)C23)OCO4)cc(OC)c1O (configuration not stated) + Cc1[nH]c2ccc(F)cc2c1-c1nc2c3cccnc3c3ncccc3c2[nH]1,25.1
4,COc1cccc2c1C(=O)c1c(O)c3c(c(O)c1C2=O)CC(O)(C(=O)CO)CC3OC1CC(N)C(O)C(C)O1 (configuration not stated) + Cc1[nH]c2ccc(F)cc2c1-c1nc2c3cccnc3c3ncccc3c2[nH]1,1
5,Cc1cccc(N(C)C(=O)C2C(O)CCN2c2nc(C)cc(C(F)(F)F)c2C#N)c1 (configuration not stated) + Cc1[nH]c2ccc(F)cc2c1-c1nc2c3cccnc3c3ncccc3c2[nH]1,100
6,O=C(c1cc(Cc2n[nH]c(=O)c3ccccc23)ccc1F)N1CCN(C(=O)C2CC2)CC1 + Cc1[nH]c2ccc(F)cc2c1-c1nc2c3cccnc3c3ncccc3c2[nH]1,89.4

# Same assay, conditions: second compound 1 µM; first compound 10 µM; stronger effect = lower value
row,SMILES,"viability, T/C [%]"
1,C=CC(=O)N1CCN(c2nc(=O)n(-c3c(C)ccnc3C(C)C)c3nc(-c4c(O)cccc4F)c(F)cc23)C(C)C1 (configuration not stated) + Cc1[nH]c2ccc(F)cc2c1-c1nc2c3cccnc3c3ncccc3c2[nH]1,79.8
2,CC(C)n1c(=O)n(C)c2cnc3cc(F)c(-c4ccc(OCCCN5CCCCC5)nc4)cc3c21 + Cc1[nH]c2ccc(F)cc2c1-c1nc2c3cccnc3c3ncccc3c2[nH]1,35
3,COc1cc(C2c3cc4c(cc3C(OC3OC5COC(C)OC5C(O)C3O)C3COC(=O)C23)OCO4)cc(OC)c1O (configuration not stated) + Cc1[nH]c2ccc(F)cc2c1-c1nc2c3cccnc3c3ncccc3c2[nH]1,9.74
4,COc1cccc2c1C(=O)c1c(O)c3c(c(O)c1C2=O)CC(O)(C(=O)CO)CC3OC1CC(N)C(O)C(C)O1 (configuration not stated) + Cc1[nH]c2ccc(F)cc2c1-c1nc2c3cccnc3c3ncccc3c2[nH]1,0.19
5,Cc1cccc(N(C)C(=O)C2C(O)CCN2c2nc(C)cc(C(F)(F)F)c2C#N)c1 (configuration not stated) + Cc1[nH]c2ccc(F)cc2c1-c1nc2c3cccnc3c3ncccc3c2[nH]1,90
6,O=C(c1cc(Cc2n[nH]c(=O)c3ccccc23)ccc1F)N1CCN(C(=O)C2CC2)CC1 + Cc1[nH]c2ccc(F)cc2c1-c1nc2c3cccnc3c3ncccc3c2[nH]1,62

# Same assay, conditions: second compound 3.16 µM; first compound 0.000999 µM; stronger effect = lower value
row,SMILES,"viability, T/C [%]"
1,CCc1c2c(nc3ccc(O)cc13)-c1cc3c(c(=O)n1C2)COC(=O)[C@]3(O)CC + Cc1[nH]c2ccc(F)cc2c1-c1nc2c3cccnc3c3ncccc3c2[nH]1,30.3

# Same assay, conditions: second compound 3.16 µM; first compound 0.00316 µM; stronger effect = lower value
row,SMILES,"viability, T/C [%]"
1,CCc1c2c(nc3ccc(O)cc13)-c1cc3c(c(=O)n1C2)COC(=O)[C@]3(O)CC + Cc1[nH]c2ccc(F)cc2c1-c1nc2c3cccnc3c3ncccc3c2[nH]1,16.4

# Same assay, conditions: second compound 3.16 µM; first compound 0.00999 µM; stronger effect = lower value
row,SMILES,"viability, T/C [%]"
1,CCc1c2c(nc3ccc(O)cc13)-c1cc3c(c(=O)n1C2)COC(=O)[C@]3(O)CC + Cc1[nH]c2ccc(F)cc2c1-c1nc2c3cccnc3c3ncccc3c2[nH]1,13.8

# Same assay, conditions: second compound 3.16 µM; first compound 0.0316 µM; stronger effect = lower value
row,SMILES,"viability, T/C [%]"
1,C=CC(=O)N1CCN(c2nc(=O)n(-c3c(C)ccnc3C(C)C)c3nc(-c4c(O)cccc4F)c(F)cc23)C(C)C1 (configuration not stated) + Cc1[nH]c2ccc(F)cc2c1-c1nc2c3cccnc3c3ncccc3c2[nH]1,102
2,CC(C)n1c(=O)n(C)c2cnc3cc(F)c(-c4ccc(OCCCN5CCCCC5)nc4)cc3c21 + Cc1[nH]c2ccc(F)cc2c1-c1nc2c3cccnc3c3ncccc3c2[nH]1,76.6
3,CCc1c2c(nc3ccc(O)cc13)-c1cc3c(c(=O)n1C2)COC(=O)[C@]3(O)CC + Cc1[nH]c2ccc(F)cc2c1-c1nc2c3cccnc3c3ncccc3c2[nH]1,10.8
4,COc1cc(C2c3cc4c(cc3C(OC3OC5COC(C)OC5C(O)C3O)C3COC(=O)C23)OCO4)cc(OC)c1O (configuration not stated) + Cc1[nH]c2ccc(F)cc2c1-c1nc2c3cccnc3c3ncccc3c2[nH]1,109
5,COc1cccc2c1C(=O)c1c(O)c3c(c(O)c1C2=O)CC(O)(C(=O)CO)CC3OC1CC(N)C(O)C(C)O1 (configuration not stated) + Cc1[nH]c2ccc(F)cc2c1-c1nc2c3cccnc3c3ncccc3c2[nH]1,80.9
6,Cc1cccc(N(C)C(=O)C2C(O)CCN2c2nc(C)cc(C(F)(F)F)c2C#N)c1 (configuration not stated) + Cc1[nH]c2ccc(F)cc2c1-c1nc2c3cccnc3c3ncccc3c2[nH]1,94.9
7,O=C(c1cc(Cc2n[nH]c(=O)c3ccccc23)ccc1F)N1CCN(C(=O)C2CC2)CC1 + Cc1[nH]c2ccc(F)cc2c1-c1nc2c3cccnc3c3ncccc3c2[nH]1,98.9

# Reference: PubChem BioAssay AID2060503 (Molecular Pharmacology Branch, DTP, NCI, 2025)
